The numbers were not newly measured in patent US20190105277A1, “PHARMACEUTICAL COMPOSITION COMPRISING AN ATYPICAL ANTIPSYCHOTIC AGENT AND METHOD FOR THE PREPARATION THEREOF” (PHARMATHEN S.A., priority 2016, published 2019), which cites them from elsewhere.

Like-named read-outs stand apart in the source and are kept apart here.

As for `Cc1nc2n(c(=O)c1CCN1CCC(c3noc4cc(F)ccc34)CC1)CCCC2O` (stereo not drawn) [Paliperidone, 3-[2-[4-(6-fluoro-1,2-benzisoxazol-3-yl)-1-piperidinyl]ethyl]-6,7,8,9-tetrahydro-9-hydroxy-2-methyl-4H-pyrido[1,2-a]pyrimidin-4-one], the solubility result is given as “slightly soluble” (in 0.1N HCl), “sparingly soluble” (in dichloromethane) and “insoluble” (in water).
